Results from patent publication US10221163B2 (priority 2015, dated 2019).
Where two headings read alike, the source gives them in different places.

How the values were obtained:
VIM-1 = VIM-1 (Pseudomonas aeruginosa (strain ATCC 15692 / DSM 22644 / CIP 104116 / JCM 14847 / LMG 12228 / 1C / PRS 101 / PAO1), UniProt A0A0F7KYQ8); experiment: biochemical; settings: CCF2-FA substrate, 30 pM enzyme, 2 hours at 25° C.
Procedure, shortened: (§1)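 Two-hour, 25° C incubation of enzyme with inhibitor and CCF2-FA (7-hydroxycoumarin–cephalosporin–fluorescein). Fluorescence read-out; IC50 via 4-parameter fit.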

[1] = test system: Pseudomonas aeruginosa efflux+ (MB9798), IMP-1; type: cell-based; settings: concentration restoring susceptibility to imipenem at 2 μg/mL in the presence of a class A, C, D serine β-lactamase inhibitor closely related to relebactam
Procedure, shortened: (§2)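 P. aeruginosa PAO1-derived IMP-1 strains, efflux+ MB9798 and efflux− MB9799, tested by standard microbroth MIC with imipenem and/or ceftazidime fixed, usually at CLSI breakpoint, plus fixed class A/C β-lactamase inhibitor against AmpC. Inhibitor titrated; concentration restoring susceptibility recorded; MB9798/MB9799 fold difference indicates efflux.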

[2] = test system: Serratia marcescens expressing IMP-1 (CL5741); type: cell-based; settings: with imipenem 1 μg/ml; 95% inhibition of bacterial growth
Procedure, shortened: (§3)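 Clinical strains grown overnight on blood agar at 35°C, colonies suspended in saline, diluted 1:100 into 1.1×CAMHB. Test compound titrated with imipenem at 1 μg/ml; incubated 22–24 h at 35°C, growth read by absorbance.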

[3] = test system: Klebsiella pneumoniae expressing VIM-1 (IHMA599644); type: cell-based; settings: with imipenem 1 μg/ml; 95% inhibition of bacterial growth
Procedure, shortened: as §3

[4] = test system: Escherichia coli expressing NDM-1 (CLB30005, CLB30016); type: cell-based; settings: with imipenem 1 μg/ml; 95% inhibition of bacterial growth
Procedure, shortened: as §3

IMP-1 = IMP-1 (Serratia marcescens, UniProt P52699); experiment: biochemical; type: biochemical; settings: fluorescence assay, CCF2-FA substrate, 2 pM enzyme, 2 hours at 25° C.; read-out: IMP-1 IC50
Procedure, shortened: as §1

NDM-1 = NDM-1 (Klebsiella pneumoniae, UniProt C7C422); experiment: biochemical; type: biochemical; settings: fluorescence assay, CCF2-FA substrate, 1 pM enzyme, 2 hours at 25° C.; read-out: NDM-1 IC50
Procedure, shortened: as §1

[5] = test system: Pseudomonas aeruginosa efflux− (MB9799), IMP-1; type: cell-based; settings: concentration restoring susceptibility to imipenem at 2 μg/mL in the presence of a class A, C, D serine β-lactamase inhibitor closely related to relebactam
Procedure, shortened: as §2

[6] = test system: Pseudomonas aeruginosa MB9798 vs MB9799; settings: ratio MITC95 PA_9798/MITC95 PA_9799
Procedure, shortened: as §2

[7] = fluorescence assay, read-out: VIM-1 IC50

Sequence of IMP-1 (P52699 whole entry, looked up, species assumed): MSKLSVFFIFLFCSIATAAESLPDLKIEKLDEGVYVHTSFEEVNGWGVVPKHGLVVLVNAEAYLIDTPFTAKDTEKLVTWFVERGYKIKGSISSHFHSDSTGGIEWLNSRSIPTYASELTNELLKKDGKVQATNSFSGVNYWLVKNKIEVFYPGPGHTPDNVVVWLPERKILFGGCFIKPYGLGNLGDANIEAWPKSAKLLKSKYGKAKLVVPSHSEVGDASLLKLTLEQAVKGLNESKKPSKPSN
Sequence of NDM-1 (C7C422 whole entry, looked up, species assumed): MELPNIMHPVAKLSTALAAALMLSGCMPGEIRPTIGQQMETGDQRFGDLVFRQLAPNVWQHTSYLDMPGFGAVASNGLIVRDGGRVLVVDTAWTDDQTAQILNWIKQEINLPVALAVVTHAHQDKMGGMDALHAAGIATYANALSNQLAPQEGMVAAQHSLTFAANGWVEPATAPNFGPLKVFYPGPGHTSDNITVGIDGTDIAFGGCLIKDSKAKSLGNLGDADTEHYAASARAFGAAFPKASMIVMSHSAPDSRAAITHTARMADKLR

| Structure (SMILES) | IC50 (VIM-1; [7]) | P. aeruginosa expressing IMP-1, efflux + (MB9798) MITC95 [1] | Serratia marcescens expressing IMP-1 (CL5741) MITC95 [2] | Klebsiella pneumoniae expressing VIM-1 (IHMA599644) MITC95 [3] | Escherichia coli expressing NDM-1 (CLB30016) MITC95 [4] | IC50 (IMP-1) | IC50 (NDM-1) | P. aeruginosa expressing IMP-1, efflux − (MB9799) MITC95 [5] | Efflux ratio [6] | IC50 (VIM-1; VIM-1 IC50, fluorescence assay) |
| --- | --- | --- | --- | --- | --- | --- | --- | --- | --- | --- |
| NCCNC(=O)c1cccc(-c2ccc(S(=O)(=O)NCCN)c(S(N)(=O)=O)c2-c2nn[nH]n2)c1N [Example 204, 2-amino-N-(2-aminoethyl)-4′-(N-(2-aminoethyl)sulfamoyl)-5′-sulfamoyl-6′-(2H-tetrazol-5-yl)biphenyl-3-carboxamide] | 0.226 nM | 0.7813 µM | 1.563 µM | 1.563 µM | 1.563 µM | 2.56 nM | 0.52 nM | 0.7813 µM | 1.00 |  |
| Nc1nc2c(-c3ccc(S(=O)(=O)N4CC[C@@H](F)[C@H](N)C4)c(S(N)(=O)=O)c3-c3nn[nH]n3)cccc2[nH]1 [Example 205, 3-(2-amino-1H-benzo[d]imidazol-4-yl)-6-(((3R,4R)-3-amino-4-fluoropiperidin-1-yl)sulfonyl)-2-(2H-tetrazol-5-yl)benzenesulfonamide] | 3.63 nM | 12.5 µM | 3.125 µM | 3.125 µM | 1.563 µM | 5.89 nM | 1.2 nM | 1.563 µM | 8.00 |  |
| Nc1nc2c(-c3ccc(S(=O)(=O)NCC4COCCN4)c(S(N)(=O)=O)c3-c3nn[nH]n3)cccc2[nH]1 (stereo not drawn) [Example 206, 4-(2-amino-1H-benzo[d]imidazol-4-yl)-N1-(morpholin-3-ylmethyl)-3-(2H-tetrazol-5-yl)benzene-1,2-disulfonamide] |  | 3.125 µM | 1.563 µM | 1.563 µM | 0.3906 µM | 0.498 nM | 0.0729 nM | 1.563 µM | 2.00 | 0.211 nM |
| Nc1nc2c(-c3ccc(S(=O)(=O)NCC4CCN4)c(S(N)(=O)=O)c3-c3nn[nH]n3)cccc2[nH]1 (stereo not drawn) [Example 207, 4-(2-amino-1H-benzo[d]imidazol-4-yl)-N1-(azetidin-2-ylmethyl)-3-(2H-tetrazol-5-yl)benzene-1,2-disulfonamide] |  | 3.125 µM | 1.563 µM | 3.125 µM | 3.125 µM | 0.999 nM | 0.274 nM | 1.563 µM | 2.00 | 0.69 nM |
| C[C@H](N)CC(=O)NS(=O)(=O)c1ccc(-c2cccc3[nH]c(N)nc23)c(-c2nn[nH]n2)c1S(N)(=O)=O [Example 208, (S)-3-amino-N-((4-(2-amino-1H-benzo[d]imidazol-4-yl)-2-sulfamoyl-3-(2H-tetrazol-5-yl)phenyl)sulfonyl)butanamide] | 1.23 nM | 3.125 µM | 3.125 µM | 6.25 µM | 1.563 µM | 3.12 nM | 0.449 nM | 3.125 µM | 1.00 |  |
| Nc1ncccc1-c1ccc(S(=O)(=O)N[C@@H]2CCNC2)c(S(N)(=O)=O)c1-c1nn[nH]n1 [Example 209, (R)-4-(2-aminopyridin-3-yl)-N^1-(pyrrolidin-3-yl)-3-(2H-tetrazol-5-yl)benzene-1,2-disulfonamide] | 0.177 nM | 1.563 µM | 0.7813 µM | 1.563 µM | 0.293 µM | 3.1 nM | 0.148 nM | 1.172 µM | 1.33 |  |
| NCC(CN)NS(=O)(=O)c1ccc(-c2cccnc2N)c(-c2nn[nH]n2)c1S(N)(=O)=O [Example 210, 4-(2-aminopyridin-3-yl)-N1-(1,3-diaminopropan-2-yl)-3-(2H-tetrazol-5-yl)benzene-1,2-disulfonamide] | 0.197 nM | 3.125 µM | 0.7813 µM | 3.125 µM | 0.1953 µM | 1.5 nM | 0.126 nM | 1.563 µM | 2.00 |  |
| CC(C)(CN)NS(=O)(=O)c1ccc(-c2cccnc2N)c(-c2nn[nH]n2)c1S(N)(=O)=O [Example 211, N1-(1-amino-2-methylpropan-2-yl)-4-(2-aminopyridin-3-yl)-3-(2H-tetrazol-5-yl)benzene-1,2-disulfonamide] | 0.182 nM | 12.5 µM | 3.125 µM | 6.25 µM | 1.563 µM | 2.25 nM | 0.156 nM | 3.125 µM | 4.00 |  |
| NC[C@H](N)CNS(=O)(=O)c1ccc(-c2cccnc2N)c(-c2nn[nH]n2)c1S(N)(=O)=O [Example 213, (S)-4-(2-aminopyridin-3-yl)-N1-(2,3-diaminopropyl)-3-(2H-tetrazol-5-yl)benzene-1,2-disulfonamide] | 0.113 nM | 3.125 µM | 0.7813 µM | 1.563 µM | 0.3906 µM | 1.54 nM | 0.0759 nM | 1.563 µM | 2.00 |  |
| Nc1ncccc1-c1ccc(S(=O)(=O)NC[C@@H](N)CO)c(S(N)(=O)=O)c1-c1nn[nH]n1 [Example 214, (R)-N1-(2-amino-3-hydroxypropyl)-4-(2-amino-pyridin-3-yl)-3-(2H-tetrazol-5-yl)benzene-1,2-disulfonamide] | 0.732 nM | 12.5 µM | 1.563 µM | 3.125 µM | 0.7813 µM | 8.49 nM | 0.566 nM | 1.563 µM | 8.00 |  |
